Experimental data: patent US20190153024A1, “NOVEL SALTS AND POLYMORPHS OF SCY-078” (priority 2015, published 2019)

Tests used:
Type in all cases: physicochemical
[1] = Dynamic Vapor Sorption (DVS) water uptake; details: for solid form by XRPD after DVS: after DVS experiment; for water uptake (DVS): 25° C., 80% RH
Experimental: Dynamic Vapor Sorption (DVS)—The term “DVS” means the procedure described in below. The relative humidity at 25° C. was calibrated against deliquescence point of LiCl, Mg(NO3)2 and KCl.
The DVS of SCY-078 salts were tested according to the above method, using a 10-20 mg sample size. The DVS was measured using a Surface Measurement Systems (SMS) DVS Intrinsic.

[2] = pH value of saturated SCY-078 salt solutions in water; details: saturated salt solution in H2O, room temperature; for pH 1 hr: equilibrated 1 hour; for pH 24 hrs: equilibrated 24 hours
Experimental: To test the pH, a solution of each compound was equilibrated at room temperature using a rolling incubator (25 rpm) for 1 hour and 24 hours before measurement.

[3] = Chemical and physical stability of SCY-078 salts on storage (25° C./60% RH, 40° C./75% RH, 60° C.)
From the text: For all compounds tested other than the trifluoroacetate salts (Type A and B) and the HCl Type I and II salts, the conditions and parameters used for measuring solubility are shown in Table 2A and for measuring stability are showing in Table 3A. The conditions and parameters used for the solubility of the trifluoroacetate salts (Type A and B) and the HCl Type I and II salts are shown in Table 2B and for stability are shown in Table 3B.

[4] = 25° C./60% RH, open dish, 1 week
[5] = 40° C./75% RH, open dish, 1 week

| Structure (SMILES) | solid form by XRPD after DVS [1] | pH 1 hr [2] | pH 24 hrs [2] | time stable when stored ([3]; 25° C. and 60% relative humidity) | Impurity % by HPLC [3, 4] [%] | time stable when stored ([3]; 40° C. and 75% relative humidity) | Impurity % by HPLC [3, 5] [%] | time stable when stored ([3]; 60° C.) | Impurity % by HPLC ([3]; 60° C., closed dish, 1 week) [%] | Impurity % by HPLC ([3]; Initial) [%] | water uptake (DVS) [1] [%] |
| --- | --- | --- | --- | --- | --- | --- | --- | --- | --- | --- | --- |
| CC(C)[C@@H](C)[C@@]1(C)CC[C@]2(C)[C@H]3CC[C@@H]4[C@@]5(COC[C@]4(C)[C@@H](OC[C@](C)(N)C(C)(C)C)[C@H](n4ncnc4-c4ccncc4)C5)C3=CC[C@@]2(C)[C@@H]1C(=O)O.O=C(O)CC(O)(CC(=O)O)C(=O)O [SCY-078 citrate Type A] | No form change | 3.5 | 3.8 | at least 1 week | 0.09 | at least 1 week | 0.10 | at least 1 week | 0.17 | 0.34 | – |
| CC(C)[C@@H](C)[C@@]1(C)CC[C@]2(C)[C@H]3CC[C@@H]4[C@@]5(COC[C@]4(C)[C@@H](OC[C@](C)(N)C(C)(C)C)[C@H](n4ncnc4-c4ccncc4)C5)C3=CC[C@@]2(C)[C@@H]1C(=O)O.O=C(O)/C=C/C(=O)O [SCY-078 fumarate Type A] | no form change | 4.4 | 3.8 | – | 0.09 | – | 0.10 | – | 0.10 | 0.12 | 2.5 |
| CC(C)[C@@H](C)[C@@]1(C)CC[C@]2(C)[C@H]3CC[C@@H]4[C@@]5(COC[C@]4(C)[C@@H](OC[C@](C)(N)C(C)(C)C)[C@H](n4ncnc4-c4ccncc4)C5)C3=CC[C@@]2(C)[C@@H]1C(=O)O.CS(=O)(=O)O [SCY-078 mesylate Type A] | no form change | 3.4 | 3.6 | – | – | – | – | – | – | – | 11.5 |
| CC(C)[C@@H](C)[C@@]1(C)CC[C@]2(C)[C@H]3CC[C@@H]4[C@@]5(COC[C@]4(C)[C@@H](OC[C@](C)(N)C(C)(C)C)[C@H](n4ncnc4-c4ccncc4)C5)C3=CC[C@@]2(C)[C@@H]1C(=O)O.O=P(O)(O)O [SCY-078 phosphate Type A] | no form change | 3.4 | 3.6 | – | – | – | – | – | – | – | 12.5 |
